Among the test systems are OVCAR-3 ovarian; ACHN renal; RXF 393 renal; IGROV1 ovarian; NCI-H522 lung; HOP-62 NSCLC; 786-0 renal; SNB-75 CNS; T-47D breast; HCC-2998 colon.
What all share (assay): DTP human tumour cell line panel, 48 h

Values joined by “and” are separate entries in the source; they are usually repeats but may differ in a detail not shown here. Equal values may be shown once.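 Protocol summary: plate cells (96-well), add compound at 5 concentrations, incubate 48 h, interpolate endpoints linearly. GI50 is the concentration that inhibits growth by half. The concentration for full growth arrest is given as TGI.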

As for `COc1ccc(NC(=O)n2nc(/C=C\c3ccc(O)c(OC)c3)cc2/C=C\c2ccc(O)c(OC)c2)cc1`, the GI50 is 2.98 µM in the assay with OVCAR-3 ovarian; 4.18 µM in the assay with ACHN renal; 3.02 µM with RXF 393 renal; 4.49 µM in the assay with IGROV1 ovarian; 1.76 µM in the assay on NCI-H522 lung; 3.65 µM in the assay with HOP-62 NSCLC. Moreover, the GI50 with 786-0 renal was 4 µM; in the assay with SNB-75 CNS, 2.35 µM; in the assay with T-47D breast, 3.68 µM; with HCC-2998 colon, 5.78 µM. The TGI with OVCAR-3 ovarian is 8.4 µM; in the assay on ACHN renal it was greater than 100 µM; in the assay with RXF 393 renal, 8.87 µM; in the assay on IGROV1 ovarian, 57 µM; with NCI-H522 lung, 12.7 µM; in the assay with HOP-62 NSCLC it was 42.8 µM. The TGI with 786-0 renal was 24.3 µM; in the assay with SNB-75 CNS, 16.3 µM; in the assay with T-47D breast, 25.8 µM; in the assay on HCC-2998 colon, greater than 100 µM.

Turning to `[N-]=[N+]=CC(=O)COC(=O)c1ccccc1`, the TGI with OVCAR-3 ovarian, in the assay on ACHN renal, in the assay on RXF 393 renal, with IGROV1 ovarian, in the assay with NCI-H522 lung and with HOP-62 NSCLC was greater than 100 µM each time. The TGI in the assay on 786-0 renal, in the assay with SNB-75 CNS, in the assay on T-47D breast and in the assay on HCC-2998 colon was greater than 100 µM each time.

In the case of `Oc1c(Cl)cc(Cl)cc1Sc1cc(Cl)cc(Cl)c1O`, the GI50 in the assay with OVCAR-3 ovarian is 3.66 µM and 2.96 µM; in the assay on ACHN renal, 2.92 µM and 3.27 µM; in the assay on RXF 393 renal, 2.84 µM and 2.52 µM; in the assay on IGROV1 ovarian it was 6.03 µM and 2.97 µM; with NCI-H522 lung, 2.49 µM; with HOP-62 NSCLC, 3.37 µM and 2.17 µM. Further, the GI50 with 786-0 renal is 3.22 µM and 2.83 µM; with SNB-75 CNS it was 3.47 µM and 2.57 µM; in the assay with T-47D breast it was 3.23 µM and 2.45 µM; with HCC-2998 colon, 3.7 µM. Also, the TGI in the assay with OVCAR-3 ovarian was 11.3 µM and 10.2 µM; with ACHN renal it was 10.7 µM and 11.3 µM; in the assay on RXF 393 renal it was 8.76 µM and 7.65 µM; with IGROV1 ovarian, 26.2 µM and 15 µM; in the assay on NCI-H522 lung it was 7.03 µM; in the assay with HOP-62 NSCLC it was 14.9 µM and 5.66 µM. The TGI in the assay with 786-0 renal was 10.4 µM and 7.85 µM; with SNB-75 CNS, 14 µM and 7.61 µM; in the assay with T-47D breast it was 18 µM and 7.78 µM; in the assay with HCC-2998 colon it was 14.7 µM.

For the compound `CCn1c(=O)c2c3ccc(OC(C)=O)cc3[nH]c2c2ccc(OC(C)=O)cc21`, the TGI with OVCAR-3 ovarian was greater than 100 µM; in the assay on ACHN renal it was 89.6 µM; with RXF 393 renal it was greater than 100 µM; in the assay on IGROV1 ovarian it was greater than 100 µM; in the assay on NCI-H522 lung, greater than 100 µM; in the assay on HOP-62 NSCLC it was greater than 100 µM. Besides, the TGI is greater than 100 µM in the assay on 786-0 renal, 89.5 µM in the assay on SNB-75 CNS, 93.9 µM in the assay with T-47D breast and 54.4 µM in the assay with HCC-2998 colon.

With `O=C(Nc1ccc(Br)cc1)Nc1nn(C(=O)Nc2ccc(Br)cc2)c2ccccc12`, the GI50 with OVCAR-3 ovarian was 33.9 µM; with ACHN renal, 61.9 µM; in the assay on IGROV1 ovarian, 52.6 µM; with NCI-H522 lung, 31 µM; with HOP-62 NSCLC, 26.4 µM; in the assay with 786-0 renal, 34.3 µM. Moreover, the figures for the GI50 in the assay on SNB-75 CNS, with T-47D breast and in the assay with HCC-2998 colon were 8.26 µM, 28.1 µM and greater than 100 µM, respectively. Further, the TGI in the assay with OVCAR-3 ovarian is greater than 77.6 µM; with ACHN renal it was greater than 100 µM; with RXF 393 renal, greater than 45.9 µM; in the assay with IGROV1 ovarian, greater than 100 µM; with NCI-H522 lung, greater than 100 µM; in the assay on HOP-62 NSCLC it was greater than 72.8 µM. Further, the TGI in the assay on 786-0 renal is greater than 100 µM; in the assay with SNB-75 CNS it was 28.7 µM; with T-47D breast, greater than 93 µM; in the assay with HCC-2998 colon it was greater than 100 µM.

As to `COC(=O)C(=O)C(C(=O)C(N)=O)c1nc2ccc(C(=O)c3ccccc3)cc2[nH]c1=O` (centres undefined), the total growth inhibition concentration (TGI) in the assay on OVCAR-3 ovarian, with ACHN renal, in the assay on RXF 393 renal, in the assay on IGROV1 ovarian, with NCI-H522 lung and with HOP-62 NSCLC was greater than 100 µM in each case. For the same compound, the TGI with 786-0 renal, with SNB-75 CNS, in the assay with T-47D breast and with HCC-2998 colon was greater than 100 µM throughout.

In the case of `Cc1cnc(Nc2ccc(OCCN3CCCC3)cc2)nc1Nc1cccc(S(=O)(=O)NC(C)(C)C)c1`, the GI50 is 0.464 µM and 1.36 µM in the assay on OVCAR-3 ovarian; 0.0927 µM and 0.733 µM with ACHN renal; 0.0955 µM and 0.518 µM in the assay on RXF 393 renal; 0.0833 µM and 0.558 µM in the assay with IGROV1 ovarian; 0.053 µM and 0.371 µM in the assay on NCI-H522 lung; 0.305 µM and 0.848 µM in the assay with HOP-62 NSCLC. Further, the GI50 in the assay on 786-0 renal is 0.197 µM and 1.01 µM; in the assay with SNB-75 CNS, 0.0852 µM and 0.286 µM; with T-47D breast, 2.13 µM and 2.11 µM; in the assay on HCC-2998 colon, 0.409 µM and 1.43 µM. For the same compound, the TGI with OVCAR-3 ovarian is 14.7 µM and > 10 µM; with ACHN renal, 1.89 µM and 3.49 µM; with RXF 393 renal, 0.385 µM and 1.78 µM; with IGROV1 ovarian it was 1.75 µM and 4.49 µM; in the assay on NCI-H522 lung it was 1.35 µM and 3.15 µM; with HOP-62 NSCLC, 9.5 µM and > 8.68 µM. Moreover, the TGI in the assay on 786-0 renal is 3.95 µM and 2.86 µM; in the assay on SNB-75 CNS it was 0.686 µM and 1.76 µM; in the assay on T-47D breast, 24.2 µM and > 10 µM; with HCC-2998 colon, 4.43 µM and > 7.01 µM.

`CCCCCCNC(=O)Oc1ccc(/C(=C(/C)Cc2ccc(OC)cc2)c2ccc(OCCN(C)C)cc2)cc1`: the GI50 in the assay with OVCAR-3 ovarian was 4.93 µM; in the assay with ACHN renal it was 5.43 µM; with RXF 393 renal, 4.36 µM; in the assay with IGROV1 ovarian, 4.62 µM; in the assay with NCI-H522 lung, 5.61 µM; with HOP-62 NSCLC, 6.18 µM. Besides, the GI50 is 4.97 µM in the assay with 786-0 renal, 3.99 µM in the assay with SNB-75 CNS, 1.41 µM in the assay with T-47D breast and 3.82 µM with HCC-2998 colon. Besides, the TGI stood at 9.79 µM with OVCAR-3 ovarian; 9.99 µM with ACHN renal; 9.23 µM with RXF 393 renal; 9.6 µM in the assay on IGROV1 ovarian; 10.6 µM in the assay on NCI-H522 lung; 11 µM in the assay with HOP-62 NSCLC. Moreover, the TGI in the assay on 786-0 renal is 9.49 µM; in the assay on SNB-75 CNS, 8.53 µM; with T-47D breast it was 7.12 µM; in the assay with HCC-2998 colon, 8.43 µM.

For the origin of these results see PubChem BioAssay (NCI).
